# In patent US9873667B2, “Arylsulfanyl compounds and compositions for delivering active agents” (EMISPHERE TECHNOLOGIES INC., priority 2006, dated 2018):
# Assays:
# Blood glucose levels = test: Oral delivery of insulin with delivery agent compound; blood glucose by glucometer; format: in vivo, male Sprague-Dawley rats
# Method: Insulin stock solution (15 mg/ml) (Human zinc insulin, Calbiochem-Novabiochem Corp., La Jolla, Calif.) was prepared with deionized water. Oral dosing compositions containing 200 mg/kg of delivery agent compound and 0.5 mg/kg of insulin in aqueous solution were prepared with the delivery agent compound shown in Table 1 below. Either the sodium salt of the delivery agent compound was used or the free acid was converted to the sodium salt with one equivalent of sodium hydroxide.
# The dosing solution was administered to fasted male Sprague-Dawley rats by oral gavage with an average weight of about 225-250 grams. Blood glucose levels were then determined by glucometer (One Touch Ultra®, LifeScan, Inc.) and compared to vehicle control (1 ml/kg of water). Samples were collected prior to dosing (time 0) and at 15, 30, 45 and 60 minutes after dosing. The % glucose reduction values in Table 1 are values found at the C minimum, and are an average % reduction with respect to the number of times the experiment was run for each delivery agent.
# 0.5 mg/kg of Insulin and 25-100 mg/kg of delivery agent compound (particular amount shown in Table 2 below) was administered to male Sprague-Dawley rats with an average weight of about 225-250 grams. The purpose of this test was to ascertain the dose response of the delivery agent compound. Glucose reduction was determined as set forth in connection with the data in Table 1.
# Insulin Titrations were performed with Delivery Agent 29 in order to gauge the effect of varying dosages of insulin.
# [1] = test system: activated partial thromboplastin time (APTT); test: Intracolonic delivery of heparin with delivery agent; clotting time (APTT); format: in vivo, male Sprague-Dawley rats; conditions: Delivery Agent 50 mg/kg, USP Heparin 25 mg/kg
# Method: Oral gavage and/or intracolonic (IC) dosing solutions containing delivery agent compound and heparin sodium USP were prepared in 25% aqueous propylene glycol. Either the sodium salt of the delivery agent compound was used or the free acid was converted to the sodium salt with one equivalent of sodium hydroxide. The delivery agent compound and heparin (about 166-182 IU/mg) were mixed by vortex as dry powders. This dry mixture was dissolved in 25% v/v aqueous propylene glycol, vortexed, and placed in a sonicator (about 37° C.). The pH was adjusted to about 7 (6.5-8.5) with aqueous NaOH (2N). The dosing solution was sonicated to produce a clear solution. The final volume was adjusted to about 3.0 ml.
# Male Sprague-Dawley rats weighing between about 275-350 g were fasted for 24 hours and anesthetized with ketamine hydrochloride (88 mg/kg) intramuscularly immediately prior to dosing and again as needed to maintain anesthesia. A dosing group of five animals were administered one of the dosing solutions. For oral gavage dosing, an 11 cm Rusch 8 French catheter was adapted to a 1 ml syringe with a pipette tip. The syringe was filled with dosing solution by drawing the solution through the catheter, which was then wiped dry. The catheter was placed down the esophagus leaving 1 cm of tubing past the incisors. The dosing solution was administered by pressing the syringe plunger.
# For intracolonic (IC) dosing, a 7.5 cm, 8 French Rusch catheter was adapted to a 1 ml syringe with a pipette tip. The dosing catheter was inserted into the colon through the anus until the tube was no longer visible. The dosing solution was expressed slowly into the colon by pressing the syringe plunger.
# Citrated blood samples were collected by cardiac puncture following the administration of ketamine (88 mg/kg), typically at 0.25, 0.5, 1.0 and 1.5 hours after dosing. Heparin absorption was verified by an increase in clotting time measured by the activated partial thromboplastin time (APTT) according to the method of Henry, J. B., Clinical Diagnosis and Management by Laboratory Methods, Philadelphia, Pa., W.B. Saunders (1979), which is hereby incorporated by reference. Previous studies indicated baseline values of about 20 seconds. Results from the animals in each group were averaged for each time points and the highest of these averages (i.e. mean peak APTT) is reported.
# [2] = Oral delivery of LHRH with delivery agent; plasma LHRH concentration; format: in vivo, male Sprague-Dawley rats; conditions: Delivery Agent: 200 mg/kg, LHRH: 1 mg/kg
# Method: Oral gavage dosing solutions of delivery agent compound and LHRH in phosphate buffer were prepared by mixing. A solution of the delivery agent compound was made either with the sodium salt of the delivery agent compound or by converting the free acid to its sodium salt. A solution of the delivery agent compound was prepared in phosphate buffer and stirred, adding one equivalent of sodium hydroxide (1.0 N) when making the sodium salt. The final dosing solutions were prepared by mixing the delivery agent compound solution with a LHRH stock solution (2.75 ml with a concentration of 20 mg/ml in aqueous solution). The pH was adjusted, if necessary, to between about 7 and 8.8.
# Male Sprague-Dawley rats weighing between about 250-300 g were fasted for 24 hours. A dosing group of five animals was administered one of the dosing solutions. An 11 cm Rusch 8 French catheter was adapted to a 1 ml syringe with a pipette tip. The syringe was filled with the dosing solution by drawing the solution through the catheter, which was then wiped dry. The catheter was placed down the esophagus leaving 1 cm of tubing past the incisors. The dosing solution was administered by pressing the syringe plunger.
# Blood samples were collected through retroorbital bleeding of approximately 0.4 ml of blood volume using EDTA tubes at time=0 (pre-dose), 2, 10, 15 and 30 minutes. The five samples from each time period were pooled. Previous studies indicated baseline values of about zero. The maximum absorption at the Tmax is reported below in Table 7. As controls, 4-(3-methyl phenoxy) butyric acid (D.A. “B”), the mesylate salt of (4-(8-(2-hydroxyphenoxy)octyl) morpholine (D.A. “C”), 4-(4-(2-hydroxyphenoxy)butyl) morpholine (D.A. “D”), and 4-(6-(2-hydroxyphenoxy)hexyl) morpholine (D.A. “E”) were also administered according to the same protocol and their results are also shown in FIG. 6.
# [3] = Oral delivery of heparin with delivery agent; plasma heparin concentration; format: in vivo, male Sprague-Dawley rats; conditions: Delivery Agent 200 mg/kg, Heparin 80 mg/kg
# [4] = Oral delivery of caspofungin acetate with delivery agent; plasma caspofungin acetate concentration; format: in vivo, male Sprague-Dawley rats; conditions: Delivery Agent 200 mg/kg, caspofungin acetate: 25 mg/kg
# Method: Oral gavage dosing solutions of delivery agent compound and caspofungin acetate (Merck & Co., Whitehouse Station, N.J.) in phosphate buffer were prepared by mixing. A solution of the delivery agent compound was made either with the sodium salt of the delivery agent compound or by converting the free acid to its sodium salt. A solution of the delivery agent compound was prepared in phosphate buffer and stirred, adding one equivalent of sodium hydroxide (1.0 N) when making the sodium salt. The final dosing solutions were prepared by mixing the delivery agent compound solution with a caspofungin acetate stock solution (2.5 ml with a concentration of 100 mg/ml in aqueous solution). The pH was adjusted, if necessary, to between about 7 and 8.8. Male Sprague-Dawley rats weighing between about 250-300 g were fasted for 24 hours. A dosing group of five animals was administered one of the dosing solutions. An 11 cm Rusch 8 French catheter was adapted to a 1 ml syringe with a pipette tip. The syringe was filled with the dosing solution by drawing the solution through the catheter, which was then wiped dry. The catheter was placed down the esophagus leaving 1 cm of tubing past the incisors. The dosing solution was administered by pressing the syringe plunger. Blood samples were collected through retroorbital bleeding at time=0 (pre-dose), 15, 30, 60, 240, and 480 minutes. […]
# [5] = oral gavage, 200 mg/kg Delivery Agent Compound, 0.5 mg/kg Insulin, value at C minimum vs vehicle control
SMILES,Tmax ([1]; time of peak APTT) [min],Tmax [2] [min],melting point [°C],Tmax [3] [min],Tmax [4] [min],% Glucose Reduction (Blood glucose levels; [5]) [%],APTT (mean peak) [1] [s],"% Glucose Reduction (Blood glucose levels; dose response, Delivery Agent Compound 25 mg/kg, Insulin 0.5 mg/kg) [%]","% Glucose Reduction (Blood glucose levels; dose response, Delivery Agent Compound 50 mg/kg, Insulin 0.5 mg/kg) [%]","% Glucose Reduction (Blood glucose levels; dose response, Delivery Agent Compound 100 mg/kg, Insulin 0.5 mg/kg) [%]"
"Cc1ccc(C)c(SCCCCCCCC(=O)O)c1 [Compound 2, 8-(2,5-Dimethyl-phenylsulfanyl)-octanoic acid]",,,60 to 63,45,,,,−10.0,,
"Cc1ccc(C)c(SCCCCCC(=O)O)c1 [Compound 6, 6-(2,5-Dimethyl-phenylsulfanyl)-hexanoic acid]",,5,61 to 62,15,,−9.8 ± 30.4,,,−15.8,−19.2
"Cc1ccc(C)c(SCCCC(=O)O)c1 [Compound 7, 4-(2,5-Dimethyl-phenylsulfanyl)-butyric acid]",,5,61 to 62,60,,,,,,

# Continued, in another order:
Tmax ([1]; time of peak APTT) [min],Tmax [2] [min],melting point [°C],Tmax [3] [min],Tmax [4] [min],SMILES,% Glucose Reduction (Blood glucose levels; [5]) [%],APTT (mean peak) [1] [s],"% Glucose Reduction (Blood glucose levels; dose response, Delivery Agent Compound 25 mg/kg, Insulin 0.5 mg/kg) [%]","% Glucose Reduction (Blood glucose levels; dose response, Delivery Agent Compound 50 mg/kg, Insulin 0.5 mg/kg) [%]","% Glucose Reduction (Blood glucose levels; dose response, Delivery Agent Compound 100 mg/kg, Insulin 0.5 mg/kg) [%]"
30,5,62 to 63,,,"COc1ccccc1SCCCCCCCC(=O)O [Compound 1, 8-(2-Methoxy-phenylsulfanyl)-octanoic acid]",−0.2,180,,,
,,,,60,"COc1ccc(SCCCCC(=O)O)cc1 [Compound 14, 5-(4-Methoxy-phenylsulfanyl)-pentanoic acid]",,,,,
